Experimental data published in US6096863A, “Self-assembling amphiphiles for construction of peptide secondary structures” (Regents of the University of Minnesota, priority 1996, dated 2000).
Starred links: 1 amine or outer side, 2 acyl side, 3 side chain; linkers in the order of their positions; H or OH if unused. Non-standard residues stand in square brackets, D forms with d. Residues, ends and D or L forms follow the SMILES beside them. *: point of attachment. X2 = CCCCCCCCCCCCCCCCOC(=O)CC[C@H](N*)C(=O)OCCCCCCCCCCCCCCCC; X1 = CCCCCCCCCCCCCCOC(=O)CC[C@H](N*)C(=O)OCCCCCCCCCCCCCC; X3 = CCCCCCCCCCCCOC(=O)CC[C@H](N*)C(=O)OCCCCCCCCCCCC; Hyp = O=C(O)[C@@H]1C[C@@H](O)CN1; Suc = O=C(CCC(=O)[*:2])[*:1]

Legend:
[1] = Surface pressure-area isotherms of monolayers at the air-water interface; type: physicochemical; conditions: for limiting surface area (monolayer reaches maximum surface pressure and collapses): 22° C., pure water subphase
Description: All isotherms were obtained at 22° C. after spreading a peptide amphiphile solution in hexane-CHCl3 -methanol (5:4:1) over a pure water subphase. After 15 minutes, the monolayer was compressed laterally with constant speed for 10 mm/minute on a computerized KSV LB5000 Langmuir-Blodgett instrument and surface pressure detected using film balance with a platinum Wilhemy plate.

[2] = Circular dichroism spectroscopy; type: physicochemical; conditions: 25° C., 0.5 mM in H2O, λ=225 nm
Description: Spectra were recorded on a JASCO J-710 spectropolarimeter using a thermostated 0.1 mm quartz cell. Thermal transition curves were obtained by recording the molar ellipticity ([θ]) in the range of 10-80° C. at λ=225 nm. The peptide and peptide-amphiphile concentrations were 0.5 mM in H2 O at 25° C.

melanoma cell = conditions: cited from earlier work

Row | Compound | limiting surface area (monolayer reaches maximum surface pressure and collapses) [1] [nm^2 /molecule] | CD spectrum, positive ellipticity (poly-Pro II / triple-helix-like structure) [2] | surface activity / formation of monolayers at the air-water interface [1] | melanoma cell adhesion and spreading (melanoma cell)
1 | CCCCCCCCCCCCCCOC(=O)CC[C@H](NC(=O)CCC(=O)NCC(=O)N[C@H](C(=O)N[C@@H](CCCCN)C(=O)NCC(=O)N[C@@H](CC(=O)O)C(=O)N[C@@H](CCCCN)C(=O)NCC(=O)N[C@@H](CC(N)=O)C(=O)N1CCC[C@H]1C(=O)NCC(=O)N[C@@H](Cc1c[nH]c2ccccc12)C(=O)N1CCC[C@H]1C(=O)NCC(=O)N[C@@H](C)C(=O)N1CCC[C@H]1C(=O)NCC(=O)N1CCC[C@H]1C(=O)N1C[C@H](O)C[C@H]1C(=O)NCC(=O)N1CCC[C@H]1C(=O)N1C[C@H](O)C[C@H]1C(=O)NCC(=O)N1CCC[C@H]1C(=O)N1C[C@H](O)C[C@H]1C(=O)NCC(=O)N1CCC[C@H]1C(=O)N1C[C@H](O)C[C@H]1C(N)=O)C(C)C)C(=O)OCCCCCCCCCCCCCC [(C14)2 -Glu-C2 -[IV-H1]-(Gly-Pro-Hyp)4] ({X1-Suc}-GVKGDKGNPGWPGAPGP[Hyp]GP[Hyp]GP[Hyp]GP[Hyp]-NH2) | 0.6 |  |  | 
2 | CCCCCCCCCCCCOC(=O)CC[C@H](NC(=O)CCC(=O)NCC(=O)N[C@H](C(=O)N[C@@H](CCCCN)C(=O)NCC(=O)N[C@@H](CC(=O)O)C(=O)N[C@@H](CCCCN)C(=O)NCC(=O)N[C@@H](CC(N)=O)C(=O)N1CCC[C@H]1C(=O)NCC(=O)N[C@@H](Cc1c[nH]c2ccccc12)C(=O)N1CCC[C@H]1C(=O)NCC(=O)N[C@@H](C)C(=O)N1CCC[C@H]1C(N)=O)C(C)C)C(=O)OCCCCCCCCCCCC [(C12)2 -Glu-C2-[IV-H1]] ({X3-Suc}-GVKGDKGNPGWPGAP-NH2) |  | no positive ellipticity |  | 
3 | CCCCCCCCCCCCCCCCOC(=O)CC[C@H](NC(=O)CCC(=O)NCC(=O)N1CCC[C@H]1C(=O)N1C[C@H](O)C[C@H]1C(=O)NCC(=O)N1CCC[C@H]1C(=O)N1C[C@H](O)C[C@H]1C(=O)NCC(=O)N1CCC[C@H]1C(=O)N1C[C@H](O)C[C@H]1C(=O)NCC(=O)N1CCC[C@H]1C(=O)N1C[C@H](O)C[C@H]1C(=O)NCC(=O)N[C@H](C(=O)N[C@@H](CCCCN)C(=O)NCC(=O)N[C@@H](CC(=O)O)C(=O)N[C@@H](CCCCN)C(=O)NCC(=O)N[C@@H](CC(N)=O)C(=O)N1CCC[C@H]1C(=O)NCC(=O)N[C@@H](Cc1c[nH]c2ccccc12)C(=O)N1CCC[C@H]1C(=O)NCC(=O)N[C@@H](C)C(=O)N1CCC[C@H]1C(N)=O)C(C)C)C(=O)OCCCCCCCCCCCCCCCC [(C16)2 -Glu-C2 -(Gly-Pro-Hyp)4 -[IV-H1]] ({X2-Suc}-GP[Hyp]GP[Hyp]GP[Hyp]GP[Hyp]GVKGDKGNPGWPGAP-NH2) | 0.6 |  |  | 
4 | CC(C)[C@H](NC(=O)CN)C(=O)N[C@@H](CCCCN)C(=O)NCC(=O)N[C@@H](CC(=O)O)C(=O)N[C@@H](CCCCN)C(=O)NCC(=O)N[C@@H](CC(N)=O)C(=O)N1CCC[C@H]1C(=O)NCC(=O)N[C@@H](Cc1c[nH]c2ccccc12)C(=O)N1CCC[C@H]1C(=O)NCC(=O)N[C@@H](C)C(=O)N1CCC[C@H]1C(N)=O [[IV-H1]] (H-GVKGDKGNPGWPGAP-NH2) |  | did not show any positive ellipticity | not surface active | promote melanoma cell adhesion and spreading
